{"source": "patent US20070117182A1", "about": "“Nucleic acids conferring transcriptional responsiveness on the RANKL gene promoter and uses thereof” (Wisconsin Alumni Research Foundation, priority 2005, published 2007)", "key": {"[1]": {"test_system": "Cyp24 promoter", "assay": "ChIP of VDR/RXR at Cyp24 promoter in ST2 cells", "format": "cell-based, mouse", "conditions": "10^-7 M, 6 hours", "method": "FIG. 3. ChIP/chip analysis of the RANKL gene locus. A) ChIP: ST2 cells were treated with either vehicle or 1,25(OH)2D3 (10^−7 M) and after 6 hours subjected to ChIP using antibodies to VDR, RXR and IgG. Precipitated DNA was analyzed for the presence of either the Cyp24 or the OPN promoter. B) Arrangement of the mouse RANKL gene locus and position of flanking genes. RANKL gene is transcribed on the reverse strand (right to left). C) DNA chip: Precipitated DNA was linearly amplified and then subjected to chip analysis using tiled oligonucleotide arrays containing 50-mers spanning the RANKL gene locus as described in the text. Hybridization data derived from the arrays are indicated in log2 scale across the locus with nucleotide positions on chromosome 14 indicated on the X axis. The first set of two arrays provide linear data comparing IgG (±1,25(OH)2D3) and VDR (±1,25(OH)2D3) over the RANKL upstream regions. The second set of three arrays provides an expanded view of hybridization data comparing VDR (±1,25(OH)2D3), VDR (+1,25(OH)2D3 vs input DNA) and RXR (+1,25(OH)2D3 vs input DNA). VDR/RXR binding regions D1-D5 are tracked by the shading.\nAs a first step, the inventors treated ST2 cells with either vehicle or 1,25(OH)2D3 for 6 hours, fixed the cells with formalin, and then subjected the cell lysates to ChIP analysis using antibodies to VDR, RXR, and an IgG control. […]"}, "[2]": {"test_system": "D5 region of the human RANKL gene", "assay": "ChIP analysis of the D5 region of the human RANKL gene in MG-63 cells", "format": "cell-based", "method": "FIG. 14. […] Cells were treated with the indicated inducers for the periods identified and isolated RNA subjected to PCR analysis for Cyp24, RANKL and b-actin. B) 1,25(OH)2D3 induces VDR binding to the conserved D5 region of the human RANKL gene in MG-63 cells. […] Two different primer sets to the human D5 region were used to assess VDR binding. VDR binding was also observed at D3-D1 but not in intervening regions or at the TSS. C) The human D5 region is transcriptionally active in MG-63 cells. […] Luciferase activity was analysed 24 hours later. […] Data are the average of triplicate determinations, SEM.\nInput represents DNA abundance prior to precipitation with either antibodies to the VDR or non specific IgG."}, "[3]": {"test_system": "mouse RANKL VDRE", "assay": "RANKL VDRE in TK promoter, luciferase reporter in ST2 cells", "format": "cell-based", "source_text": "FIG. 8. The mouse RANKL VDRE is inducible by 1,25(OH)2D3. The mouse RANKL VDRE (sequence seen in FIG. 7) was cloned into the TK promoter, transfected into ST2 cells and evaluated for transcriptional regulation by 1,25(OH)2D3. A 10 to 15-fold induction mediated by the RL VDRE is observed. A similar induction is observed in the context of the RL minimal promoter. Data are the average of triplicate determinations, SEM.\nChIP data are of inherent low resolution, making it difficult to identify the specific sequence to which the VDR/RXR heterodimer binds within the RL-CCL. 1,25(OH)2D3-inducibility of the RL-CCL DNA fragment, however, provides the opportunity to precisely map the location of the VDRE using mutagenesis. The inventors therefore subjected the RL-CCL DNA fragment to 5′ deletion analysis using PCR and prepared a series of fragments of the RL-CCL with increasingly fore-shortened 5′ termini as illustrated in FIG. 7a. These RANKL gene fragments were similarly cloned into the pTK-luc vector and their activities together with the wildtype D5 fragment examined in response to 1,25(OH)2D3, glucocorticoids and the combination following transfection into ST2 cells. […] As well, this region of the RL-CCL also contains a number of consensus GR binding half-sites, and at least one consensus GRE duplex site."}, "[4]": {"test_system": "osteopontin (OPN)", "assay": "RT-PCR of osteopontin control gene in treated ST2 cells", "format": "cell-based, mouse", "conditions": "up to 24 hours", "method": "(§1) FIG. 2. Induction of RANKL in ST2 cells by hormones and cytokines. ST2 cells were treated with the agents indicated for periods up to 24 hours. Total RNA was isolated and subjected to RT-PCR using a primer set to mouse RANKL and beta-actin. Positive vitamin D target control genes include Cyp24 and osteopontin (OPN).\n(§2) The inventors first established a model in which RANKL is both induced in response to 1,25(OH)2D3, PTH (forskolin) and oncostatin M (OSM), and is capable of supporting osteoclast formation when co-cultured with bone marrow monocyte- or spleen cell-derived osteoclast precursors. While a number of cell types express RANKL and induce osteoclastogenesis, the historical literature strongly supports mouse ST2 cells in this capacity, prompting the inventors to focus on this stromal/preosteoblastic line for initial studies. […] Each of these components is known to both induce RANKL expression and promote osteoclast formation as well. […] Indeed, GC effects are widely observed. […] The ability of GCs to enhance osteoclast formation in coculture assays in the presence of 1,25(OH)2D3, however, is likely due also to its coordinate ability to suppress OPG."}, "[5]": {"test_system": "mouse D5 region (TK-mRLD5)", "assay": "TK-mRLD5 luciferase reporter in MG-63 cells", "format": "cell-based", "conditions": "24 hours"}, "[6]": {"test_system": "Cyp24", "assay": "RT-PCR of Cyp24 control gene in treated ST2 cells", "format": "cell-based, mouse", "conditions": "up to 24 hours", "method": "as §1, §2"}, "[7]": {"test_system": "RANKL", "assay": "RT-PCR of RANKL transcripts in treated ST2 cells", "format": "cell-based, mouse", "conditions": "treated up to 24 hours, agent alone, vs beta-actin controls", "method": "as §1, §2"}}}
{"smiles": "C=C1/C(=C\\C=C2/CCC[C@]3(C)[C@@H]([C@H](C)CCCC(C)(C)O)CC[C@@H]23)C[C@@H](O)C[C@@H]1O", "note": "[1,25(OH)2D3]", "values": [{"measurement": "abundance of Cyp24 promoter DNA precipitated with VDR and RXR antibodies", "setting": "[1]", "result": "clearly increased the abundance of DNA"}, {"measurement": "RXR binding to the D5 region of the human RANKL gene", "setting": "[2]", "result": "also induced to bind"}, {"measurement": "VDR binding to the D5 region of the human RANKL gene", "setting": "[2]", "result": "induced"}, {"measurement": "induction mediated by the RL VDRE", "setting": "[3]", "result": "10 to 15", "unit": "fold"}, {"measurement": "osteopontin (OPN) induction", "setting": "[4]", "result": "induced in a time-dependent manner"}, {"measurement": "activity of mouse D5 region", "setting": "[5]", "result": "induces"}, {"measurement": "Cyp24 induction", "setting": "[6]", "result": "induced in a time-dependent manner"}, {"measurement": "RANKL transcripts", "setting": "[7]", "result": "substantial time-dependent increase"}]}
